Test results from patent US20210002371A1, “COMBINATION OF AN ANTI-PD-L1 ANTIBODY AND IDO1 INHIBITOR FOR THE TREATMENT OF CANCER” (Merck Patent GmbH, priority 2017, published 2021).

Tests used:
[1] = test system: CT26-KSA colon carcinoma cells; assay: Anti-tumor efficacy in CT26-KSA tumor-bearing mice (s.c. colon carcinoma model); type: in vivo, BALB/c female mice; settings: M4112 200 mg/kg p.o. 2x/day for 3 weeks, avelumab 400 μg i.v. Days 0, 3, 6
Experimental: (§1) Tumor growth data are presented in graphical form as the mean and standard error of the mean (SEM) of tumor volumes every 3 or 4 days. Two-way repeated measures analysis of variance (RM ANOVA) with Tukey's post-test was performed to assess differences in tumor volumes between treatment groups. Treatment/Control (T/C) values were calculated as the mean tumor volume of the treatment group divided by the mean tumor volume of the control group on the last day of observation and are expressed as percentages. In all cases, p<0.05 was considered statistically significant. Kaplan Meier survival curves were analyzed by Log-Rank (Mantel-Cox) test. A Bonferroni-corrected significance threshold of p<0.0125 was used to account for multiple comparisons.
The combination treatment of avelumab and M4112 in a CT26-KSA murine model was undertaken to evaluate the anti-tumor activity in BALB/c mice. […] The tumor volume, mice survival and mouse body weight were measured. […]
CT26-KSA cells were cultured in RPMI-1640 medium containing 10% FBS, 2 mM L-glutamine, 0.1 mM non-essential amino acids (NEAA), 1 mM Na Pyruvate, 1% MEM vitamin solution and 1% G418 antibiotic (1 mg/mL). […] Cells were harvested by trypsinization with TrypLE Express and viable cell counts were determined using a Countess or hematocrit chamber cell counter and trypan blue exclusion staining. […]

[2] = test system: MC38 colon carcinoma cells; assay: Anti-tumor efficacy in MC38 tumor-bearing mice (s.c. colon carcinoma model); type: in vivo, C57BL/6 female mice; settings: Day 24; M4112 200 mg/kg p.o. 2x/day for 4 weeks; avelumab 400 μg i.v. Days 0, 2, 4; control = M4112 vehicle + isotype control
Experimental: as §1
The combination treatment of avelumab and M4112 in the MC38 murine model was undertaken to evaluate the anti-tumor activity in C57BL/6 mice. […] The tumor volume, mice survival and mouse body weight were measured.
MC38 cells were cultured in DMEM containing 4.5 g/L D-glucose, 2 mM glutamine, and 110 mg/L sodium pyruvate and supplemented with 10% FBS, 0.1 mM MEM NEAA, and penicillin/streptomycin. […] Cells were harvested by trypsinization with TrypLE Express and viable cell counts were determined using a Countess or hematocrit chamber cell counter and trypan blue exclusion staining. […]

[3] = test system: IDO1 expressing mDCs co-cultured with PBMCs; assay: One-way Mixed Lymphocyte Reaction (MLR) assay, IFNγ production by ELISA; type: cell-based, human; settings: M4112 5 μM, avelumab 0.61-10000 ng/mL
Experimental: High levels of IDO1 in mDCs correlate with suppressed avelumab activity (IFNγ production) in the one-way MLR assay, which is reversed in an avelumab dose-dependent manner when M4112 is used in combination. Prior to the one-way MLR assay, imDCs from donor 17988 were treated with 1 μg/mL LPS for two days to obtain mDCs. Cells were stained with either an isotype control Phycoerythrin (PE) antibody or an anti-IDO1-PE antibody. (A-B) Stained cells were analyzed via FACS. Purple (solid curve) represents isotype control stained cells and green (transparent curve) represents IDO1-PE stained cells. […] On (C) Day 4 (Experiment A) or (D) Day 3 (Experiment B) of the MLR assay, IFNγ levels ([…]) were measured in the co-culture supernatant via IFNγ ELISA. […]
This example describes the in vitro characterization of M4112, alone and in combination with the anti-tumor compound avelumab, using one-way Mixed Lymphocyte Reaction (MLR) assays. […] Using this functional assay, the immune IDO1 expressing cells (mDCs) were cultured with PBMCs in the presence or absence of the IDO1/TDO2 inhibitor, M4112, and the immune response was evaluated by looking at IFNγ production. […]
A one-way MLR assay was performed with a 2.3:1 ratio of PBMC to mDC (stimulated with LPS) under two different conditions. […] Both experiments measured the change in IFNγ concentration using the optical density of a standard curve from an ELISA.

NS(=O)(=O)[C@H]1CC[C@](F)(CC[C@H]2c3ccccc3-c3cncn32)CC1 [Compound M4112, c-4-fluoro-t-4-[(S)-2-(5H-imidazo[5,1-a]isoindol-5-yl)-ethyl]-cyclohexane-r-1-sulfonic acid amide]
median survival time ([1]; CT26-KSA tumor-bearing mice): 30.5 days | T/C (mean tumor volume of treatment group / mean tumor volume of control group) ([1]; Day 21, control = M4112 vehicle + isotype control): 78% | T/C (mean tumor volume of treatment group / mean tumor volume of control group) [2]: 72% | avelumab activity (IFNγ production) in MLR ([3]; Experiment A: IDO1-high mDCs, Day 4): the activity of avelumab was restored to normal levels | avelumab activity (IFNγ production) in MLR ([3]; Experiment B: IDO1-low mDCs, Day 3): no change in avelumab activity
